The subject of experiment [1] is KMS-12-PE Bcl-2 G101V. Nature of the experiment: In vitro cytotoxicity CellTiter-Glo 48 h, KMS-12-PE Bcl-2 G101V. The settings on record: for Ratio (G101V/WT): C50 KMS-12-PE Bcl-2 G101V over C50 KMS-12-PE Bcl-2 WT; for IC50: Homo sapiens, KMS-12-PE, 48 h, CellTiter-Glo, C50 = concentration needed to reach 50% of the cellular viability. Format: cell-based. The procedure, abridged: (§1)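 Transduce KMS-12-PE with Bcl-2 WT or G101V lentivirus, then FACS-sort RFP-positive cells. Add compounds in an 11-point dilution series and incubate 48 h at 37 °C. Measure ATP-based luminescence with CellTiter-Glo and derive C50 (50% viability).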

In experiment [2] the target is BCLXL WT (Homo sapiens (Human), UniProt Q07817). Nature of the experiment: TR-FRET competitive binding assay, BCLXL WT. The settings on record: for Ki: BCLXL WT, Ki determined from IC50, read-out: TR_FRET EKI BclxL; for TR_FRET EKI BCLxL/WT selectivty ratio: ratio Ki BCLxL / Ki BCL2 WT. The procedure, abridged: (§2)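 Ki derived from IC50 (11-point dilution, 520/495 nm emission ratio) for displacing a fluorescein-labelled PUMA peptide (2 or 20 nM). Target was 0.5 nM E. coli-expressed Halo-tagged BCL2 (1-207) or BCLXL (2-196), terbium-labelled on Halo. Incubation 2 h at 23°C in pH 7.5 Hepes with 150 mM NaCl and 5% DMSO.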
A general note: TR-FRET usually uses a lanthanide donor and a delayed reading to cut background.

Experiment [3] deals with BCL2 WT (Homo sapiens (Human), UniProt P10415). The experiment is described as follows: TR-FRET competitive binding assay, BCL2 WT. The note with it: Ki determined from IC50, read-out: TR_FRET EKI_Bcl2 WT. The procedure, abridged: as §2
The target of experiment [4] is BCL2 G101V (Homo sapiens, UniProt P10415, G101V). Nature of the experiment: TR-FRET competitive binding assay, BCL2 G101V. The note with it: BCL2 G101V; Ki determined from IC50; read-out: TR_FRET EKI_Bcl2 G101V. A digest of the protocol: as §2
In experiment [5] the test system is BCL2 G101V. Nature of the experiment: TR-FRET competitive binding assay, BCL2 G101V. The arrangement: species or system human. The settings on record: ratio Ki BCL2 G101V / Ki BCL2 WT. The procedure, abridged:
as §2

Experiment [6] deals with BCL2 D103Y (Homo sapiens, UniProt P10415, D103Y). The experiment is described as follows: TR-FRET competitive binding assay, BCL2 D103Y. The settings on record: Ki determined from IC50, read-out: TR_FRET EKI_Bcl2 D103Y. A digest of the protocol: as §2
Experiment [7] relates to KMS-12-PE Bcl-2 WT. Nature of the experiment: In vitro cytotoxicity CellTiter-Glo 48 h, KMS-12-PE Bcl-2 WT. Format: cell-based. The settings on record: Homo sapiens, KMS-12-PE, C50 = concentration needed to reach 50% of the cellular viability. A digest of the protocol: as §1
A general note: In ATP-based viability assays light output follows the ATP content of the culture.

Experiment [8] concerns the target BCL2 D111A (Homo sapiens, UniProt P10415, D111A). Nature of the experiment: TR-FRET competitive binding assay, BCL2 D111A. The note with it: Ki determined from IC50, read-out: TR_FRET EKI_Bcl2 D111A. A digest of the protocol:
as §2

Experiment [9] addresses BCL2 F104I (Homo sapiens, UniProt P10415, F104I). Nature of the experiment: TR-FRET competitive binding assay, BCL2 F104I. The note with it: Ki determined from IC50, read-out: TR_FRET EKI_Bcl2 F104I. A digest of the protocol:
as §2

The structures appear in SMILES notation.

Chain of BCLXL WT (Q07817 other isoform, or with tags, fused parts or gaps): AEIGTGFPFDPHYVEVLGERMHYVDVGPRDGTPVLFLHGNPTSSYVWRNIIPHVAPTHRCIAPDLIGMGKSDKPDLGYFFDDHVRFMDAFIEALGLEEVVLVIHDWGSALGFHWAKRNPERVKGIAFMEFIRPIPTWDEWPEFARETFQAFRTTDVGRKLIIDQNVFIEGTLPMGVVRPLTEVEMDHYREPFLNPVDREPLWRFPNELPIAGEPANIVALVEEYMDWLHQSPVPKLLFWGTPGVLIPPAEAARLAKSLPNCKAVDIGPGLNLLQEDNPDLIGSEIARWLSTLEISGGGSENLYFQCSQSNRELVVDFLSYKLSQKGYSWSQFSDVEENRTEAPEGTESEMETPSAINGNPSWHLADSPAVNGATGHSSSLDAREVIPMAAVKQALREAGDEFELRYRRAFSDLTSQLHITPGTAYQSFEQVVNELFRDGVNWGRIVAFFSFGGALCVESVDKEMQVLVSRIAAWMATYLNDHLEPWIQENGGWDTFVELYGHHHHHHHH

By IC50 is commonly meant the concentration that inhibits the measured activity by half. Higher therefore signals weaker potency in that assay. With `COc1ncc(N(C(=O)c2cc(-c3cc4c(cc3C(=O)N3Cc5ccccc5C[C@H]3C)CN(C(=O)Cc3ccc(OCCN5CCOCC5)cc3F)CC4)n(C)c2C)c2ccc(O)cc2)cc1F` [Example 111, 5-[2-(2-{2-fluoro-4-[2-(morpholin-4-yl)ethoxy]phenyl}acetyl)-7-{[(3R)-3-methyl-3,4-dihydro-1H-isoquinolin-2-yl]carbonyl}-3,4-dihydro-1H-isoquinolin-6-yl]-N-(5-fluoro-6-methoxypyridin-3-yl)-N-(4-hydroxyphenyl)-1,2-dimethylpyrrole-3-carboxamide], in experiment [1], the “Ratio (G101V/WT)” value was determined as 8.18. The results for the IC50 in experiment [1] and in experiment [7] were 0.0392 µM and 0.0048 µM, respectively. In addition, the Ki amounted to 7.2 nM in experiment [2]; 0.15 nM in experiment [3]; 0.8 nM in experiment [4]; 0.59 nM in experiment [6]; 0.4 nM in experiment [8]; 0.79 nM in experiment [9]. Moreover, the “TR_FRET EKI BCLxL/WT selectivty ratio” value in experiment [2] came to 48.0. Also, the “TR_FRET EKI G101V/WT selectivty ratio” value in [5] amounted to 5.2.

Turning to `Cc1cc(OCCN2CCOCC2)ccc1CC(=O)N1CCc2cc(-c3cc(C(=O)N(c4ccc(O)cc4)c4cc(C#N)n(C)c4C)c(C)n3C)c(C(=O)N3Cc4ccccc4C[C@H]3CN3CCCCC3)cc2C1` [Example 113, N-(5-cyano-1,2-dimethyl-1H-pyrrol-3-yl)-N-(4-hydroxyphenyl)-1,2-dimethyl-5-[2-(2-{2-methyl-4-[2-(morpholin-4-yl)ethoxy]phenyl}acetyl)-7-[(3S)-3-[(piperidin-1-yl)methyl]-1,2,3,4-tetrahydroisoquinoline-2-carbonyl]-1,2,3,4-tetrahydroisoquinolin-6-yl]-1H-pyrrole-3-carboxamide], the “Ratio (G101V/WT)” value in experiment [1] is 4.38. Also, the IC50 in experiment [1] was 0.0278 µM; in [7] it was 0.0063 µM. Moreover, the Ki in experiment [2] is 3.6 nM; in [3], 0.05 nM; in experiment [4], 0.3 nM; in experiment [6], 0.15 nM; in experiment [8], 0.13 nM; in experiment [9] it was 0.27 nM. Moreover, the “TR_FRET EKI BCLxL/WT selectivty ratio” value in experiment [2] is reported as 69.2. The “TR_FRET EKI G101V/WT selectivty ratio” value in experiment [5] was 5.2.

In the case of `Cc1c(N(C(=O)c2cc(-c3cc4c(cc3C(=O)N3Cc5ccccc5C[C@H]3CN3CCCCC3)CN(C(=O)Cc3ccc(OCCN5CCC(F)CC5)cc3F)CC4)n(C)c2C)c2ccc(O)cc2)cc(C#N)n1C` [Example 115, N-(5-cyano-1,2-dimethyl-1H-pyrrol-3-yl)-5-[2-(2-{2-fluoro-4-[2-(4-fluoropiperidin-1-yl)ethoxy]phenyl}acetyl)-7-[(3S)-3-[(piperidin-1-yl)methyl]-1,2,3,4-tetrahydroisoquinoline-2-carbonyl]-1,2,3,4-tetrahydroisoquinolin-6-yl]-N-(4-hydroxyphenyl)-1,2-dimethyl-1H-pyrrole-3-carboxamide], in experiment [1], the “Ratio (G101V/WT)” value came to 6.05. For the same molecule, the IC50 in experiment [1] was 0.0458 µM; in experiment [7] it was 0.0072 µM. Besides, the Ki in [2] was determined as 2.8 nM; in experiment [3], 0.03 nM; in experiment [4], 0.2 nM; in [6], 0.08 nM; in [8], 0.17 nM; in experiment [9] it was 0.3 nM. In addition, the “TR_FRET EKI BCLxL/WT selectivty ratio” value in [2] was 100.0. Further, in [5], the “TR_FRET EKI G101V/WT selectivty ratio” value was determined as 5.6.

Consider `Cc1c(N(C(=O)c2cc(-c3cc4c(cc3C(=O)N3Cc5ccccc5C[C@H]3CN3CCCCC3)CN(C(=O)Cc3ccc(OCCN5CCN(CCF)CC5)cc3F)CC4)n(C)c2C)c2ccc(O)cc2)cc(C#N)n1C` [Example 117, N-(5-cyano-1,2-dimethyl-1H-pyrrol-3-yl)-5-{2-[2-(2-fluoro-4-{2-[4-(2-fluoroethyl)piperazin-1-yl]ethoxy}phenyl)acetyl]-7-[(3S)-3-[(piperidin-1-yl)methyl]-1,2,3,4-tetrahydroisoquinoline-2-carbonyl]-1,2,3,4-tetrahydroisoquinolin-6-yl}-N-(4-hydroxyphenyl)-1,2-dimethyl-1H-pyrrole-3-carboxamide], for which the “Ratio (G101V/WT)” value in experiment [1] is recorded as 4.09. The figures for the concentration for half-maximal inhibition (IC50) in experiment [1] and in experiment [7] were 0.033 µM and 0.0081 µM, respectively. In addition, the Ki in experiment [2] came to 1.7 nM; in [3], 0.05 nM; in experiment [4], 0.3 nM; in [6] it was 0.11 nM; in experiment [8], 0.11 nM; in experiment [9], 0.18 nM. In [2], the “TR_FRET EKI BCLxL/WT selectivty ratio” value turned out to be 36.2. Moreover, in experiment [5], the “TR_FRET EKI G101V/WT selectivty ratio” value came to 5.3.

For the molecule `Cc1c(N(C(=O)c2cc(-c3cc4c(cc3C(=O)N3Cc5ccccc5C[C@H]3CN3C[C@H]5C[C@H]5C3)CN(C(=O)Cc3ccc(OCCN5CCOCC5)cc3F)CC4)n(C)c2C)c2ccc(O)cc2)cc(C#N)n1C` [Example 120, 5-{7-[(3S)-3-{[cis-3-azabicyclo[3.1.0]hexan-3-yl]methyl}-1,2,3,4-tetrahydroisoquinoline-2-carbonyl]-2-(2-{2-fluoro-4-[2-(morpholin-4-yl)ethoxy]phenyl}acetyl)-1,2,3,4-tetrahydroisoquinolin-6-yl}-N-(5-cyano-1,2-dimethyl-1H-pyrrol-3-yl)-N-(4-hydroxyphenyl)-1,2-dimethyl-1H-pyrrole-3-carboxamide], in [1], the “Ratio (G101V/WT)” value is 5.83. In addition, the 50% inhibitory concentration (IC50) in [1] turned out to be 0.0186 µM; in experiment [7], 0.0032 µM. For the same molecule, the Ki in experiment [2] came to 5.3 nM; in [3], 0.1 nM; in experiment [4] it was 0.5 nM; in [6], 0.21 nM; in experiment [8], 0.3 nM; in experiment [9] it was 0.37 nM. Further, the “TR_FRET EKI BCLxL/WT selectivty ratio” value in experiment [2] turned out to be 53.0. The “TR_FRET EKI G101V/WT selectivty ratio” value in [5] came out at 5.2.

Take `Cc1c(N(C(=O)c2cc(-c3cc4c(cc3C(=O)N3Cc5ccccc5C[C@H]3CN3CCCCC3)CN(C(=O)Cc3ccc(OCCN5CCOC(C)(C)C5)cc3)CC4)n(C)c2C)c2ccc(O)cc2)cc(C#N)n1C` [Example 121, N-(5-cyano-1,2-dimethyl-1H-pyrrol-3-yl)-5-[2-(2-{4-[2-(2,2-dimethylmorpholin-4-yl)ethoxy]phenyl}acetyl)-7-[(3S)-3-[(piperidin-1-yl)methyl]-1,2,3,4-tetrahydroisoquinoline-2-carbonyl]-1,2,3,4-tetrahydroisoquinolin-6-yl]-N-(4-hydroxyphenyl)-1,2-dimethyl-1H-pyrrole-3-carboxamide]: in [1], the “Ratio (G101V/WT)” value is recorded as 5.25. The IC50 came to 0.0397 µM in experiment [1] and 0.0076 µM in experiment [7]. The Ki in experiment [2] is 6 nM; in experiment [3], 0.16 nM; in [4], 0.5 nM; in [6] it was 0.34 nM; in [8], 0.23 nM; in [9], 0.56 nM. In addition, in experiment [2], the “TR_FRET EKI BCLxL/WT selectivty ratio” value is 38.5. For the same molecule, the “TR_FRET EKI G101V/WT selectivty ratio” value in [5] is reported as 3.2.

The values above are taken from patent US20250179047A1, “5-[7-(3,4-DIHYDRO-1H-ISOQUINOLINE-2-CARBONYL)-1,2,3,4 TETRAHYDROISOQUINOLIN-6-YL]-1H-PYRROLE-3-CARBOXAMIDE DERIVATIVES, PHARMACEUTICAL COMPOSITIONS CONTAINING THEM AND THEIR USES AS PRO-APOPTOTIC AGENTS” (LES LABORATOIRES SERVIER, priority 2022, published 2025).
